The text below walks through data of patent US5587509A, “Caged caboxyl compounds and use thereof” (Cornell Research Foundation, Inc., priority 1995, dated 1996).

For series [1], the system named is glycine receptor channels. Briefly: whole-cell current recording, cell-flow with mixer (effect of the caged compound or photoproduct on glycine receptor channels). It is filed as cell-based, mouse. Conditions: for effect on glycine receptors or their response to glycine: mouse cerebral cortical neurons, pH 7.1. As to the method: (§1) Whole-cell current recording was performed as follows. The preparation of embryonic mouse cortical cells was as described by Geetha et al. (Biochemistry 31:5488-5499 (1992)). The extracellular recording buffer was 145 mM NaCl, 1.8 MM MgCl2, 1 mM CaCl2 and 10 mM Hepes (pH 7.4) and the intracellular buffer was 145 mM CsCl, 1 mM CaCl2, 10 mM EGTA [ethyleneglycol-bis-(beta-aminoethyl ether) N,N,N',N'-tetraacetic acid] and 10 mM Hepes (pH 7.2) The flow method used to equilibrate receptors on the surface of a single cell with ligands within 10 ms has been described by Udgaonkar et al (Proc. Natl. Acad. Sci. USA, 84:8758-8762 (1987)). The whole-cell current responses were determined in mouse cortical neurons, pH […], room temperature (22° C.). Caged glycine solutions at pH 4.0 in extracellular buffer but containing only 5 mM Hepes were mixed in 1:1 proportions with extracellular recording buffer containing 20 mM Hepes at pH 7.4 using a low volume T-tube mixer before the solutions entered the U-tube that delivered the solution stream at pH 7.1 to the cell at a linear flow rate of 0.5 cm s^-1. The whole-cell current due to opening of glycine receptor channels was recorded using the technique of Hamill et al. (Pflugers Arch, 391:85-100 (1981)). All other details of the cell-flow technique, and the combination of the cell-flow technique with the laser-pulse photolysis technique in which the whole-cell current is measured after photolysis of caged neurotransmitter, were as described by Matsubara et al (Biochemistry, 31:5507-5514 (1992)). Hydrolysis of the caged glycine before it was applied to a cell was prevented by the mixer strategy.
Specifically, the caged glycine solution with and without free glycine at pH 4.0 was rapidly mixed with extracellular buffer to produce a solution of pH 7.1 before flowing it over the cell. A control solution of 85 μM free glycine (170 μM glycine in extracellular buffer mixed with pH 4 buffer used to stabilize the ester) is shown by the solid trace in FIG. 3. […] Identical current responses were obtained when 170 μM glycine in pH 7.4 buffer was mixed with pH 4 buffer when the solutions were altemately applied from the two different supply lines of the mixer (data not shown).

For series [2] the following is noted: cited from earlier work.
For series [3], the system named is acetylcholine receptor. The conditions noted are these: Milburn et al.; cited from earlier work.
A short description of series [4]: spontaneous hydrolysis in buffer followed spectrophotometrically. In kind it is physicochemical. As for the experimental part:
A 1.1 mM solution of the caged glycine of Example I was prepared in extracellular recording buffer at pH 7.1. […] The caged glycine ester was rapidly dissolved in buffers to produce approximately 800 μM solutions of the caged compound and immediately transferred to a 2×2 cuvette in a Hewlett Packard model 8452A diode array spectrophotometer set up to collect spectra at timed intervals. The initial rates of the hydrolysis reaction were obtained from absorbance measurements at 310, 360 and 384 nm after subtraction of the absorbance of the completely hydrolyzed solution. The spectra of the fully hydrolyzed solutions were identical in all cases to reference spectra of 2-methoxy-5-nitrophenol at the different pH values. The upper trace at 310 nm represents the spectrum of the compound before hydrolysis. The lower trace at 310 nm corresponds to the fully hydrolyzed material and matches the spectrum of 2-methoxy-5-nitrophenol at pH 7.0. The spectra were acquired at 0, 1, 2, 3, 4, 6, 8, 11 and 60 min after the initial rapid dissolution in buffer. All measurements were performed at room temperature (22°-24° C.).

Series [5] concerns glycine receptor channels. Briefly: whole-cell current after laser-pulse photolysis of caged glycine (cell-flow laser-pulse photolysis). In kind it is cell-based, mouse. The conditions noted are these: for rate of rising phase of whole-cell current: 700 μM caged compound, pH 7.1. As for the experimental part: (§2) To evaluate the photolysis characteristics of the 2-methoxy-5-nitro glycine ester of Example I, laser pulse photolysis was performed and the results thereof are shown in FIG. 2 by the rapid absorbance jump produced by the photolysis of the ester. The light source used to initiate the photolysis reaction was a Lumonics TE861M excimer laser. The lasing medium was either 2% N2 in helium, which produced a primary energy of 6 mJ at 337 nm with a 4 ns pulse width, or a XeCl mix that produced 70 rnJ at 308 nm in 6 ns pulses. For cell photolysis, the 337 nm light was delivered to the microscope stage for use in whole-cell recording measurements with a 300 μm core optical fiber (FiberGuide Industries); 10% of the primary energy was typically coupled through the fiber to the cell preparation. Rapid absorbance changes of caged compound solutions were measured with a transient absorbance spectrophotometer in which 308 nm light from the primary output of the laser was focussed into a 2×2 mm quartz cuvet and the absorbance changes produced were monitored at right angles to the laser beam with a single beam transient spectrophotometer whose signal transfer parameters effectively produced 500 kHz filtering of the rapid absorbance jump. The photocurrent was amplified with a Thorn EMI model Al preamplifier, which also acted as a low pass filter with cutoff dependent on the amplification selected; the cutoff frequencies were between 50 KHz and 50 MHz. The rapid absorbance jump produced in the caged ester solution by single laser flashes could be digitized at up to 2 MHz with a digital oscilloscope and in each case the preamplifier filtering was matched to the digitization rate of the data collection. Measurements of the pulsed UV light energy for quantum yield determinations were made with a Gentec ED200 calibrated thermopile.
as §1, with “strategy. […]” for “strategy.”

The nature of series [6]: laser-pulse photolysis, transient absorbance (photolysis speed and product quantum yield). In kind it is physicochemical. As to the method:
as §2
Absorbance measurements of the fast jump were made over the range 350 to 450 nm and the resulting profile matched the absorbance spectrum of the expected 2-methoxy-5-nitrophenol. Measurements of triplet quenching in the reaction of 2-methoxy-5-nitrophenyl acetate by Kuzmic et al. (supra) indicate that the lifetime of the photohydrolysis reaction is 0.15 μs. The maximum time resolution of the transient absorbance measurements in our study is 0.5 μs.
The product quantum yield from photolysis of the caged glycine was estimated by comparison to the photolysis of 2-methoxy-5-nitrophenyl acetate, which was used as an actinometric standard. A quantum yield of 0.22 was found for a 1 mM solution of 2-methoxy-5-nitrophenyl acetate in 100 mM phosphate buffer at pH 7.0 that also contained 20% acetonitrile to substituted for caged glycine.

Like-named read-outs stand apart in the source and are kept apart here.

`COc1ccc([N+](=O)[O-])cc1O` [2-methoxy-5-nitrophenol]: in series [1], the “effect on glycine receptors or their response to glycine” value is listed as “Neither the caged compound nor the 2-methoxy-5-nitrophenol photolysis product affected the glycine receptors or modified their response to glycine”.

As to `O=C(O)CNC(C(=O)O)c1ccccc1[N+](=O)[O-]` (stereo not shown) [N-(.varies.-carboxy-2-nitrobenzyl)glycine], in series [2] (Billington et al.), the product quantum yield is given as 0.02. For the same molecule, the “photolysis time constant τ” value in series [2] (pH 7.5, Billington et al.) is recorded as 1.6 ms.

On to `C[N+](C)(C)CCOC(=O)NC(C(=O)O)c1ccccc1[N+](=O)[O-]` (stereo not shown) [caged carbamoylcholine], for which the “biological activity before photolysis” value in series [3] is listed as “biologically inert”. Further, the “time to liberate carbamoylcholine by a laser pulse” value in series [2] (laser pulse, Milburn et al.) is at most 120 μs. In addition, in series [2] (photolysis to carbamoylcholine, Milburn et al.), the “photolysis t1/2” value is listed as 40 μs.

With `COc1ccc([N+](=O)[O-])cc1OC(=O)CN` [caged glycine, 2-Methoxy-5-nitrophenyl glycine ester], the half-life is about 3 h in series [4] (buffer, pH 4, pH 4.0, read-out: time constant τ for hydrolysis (converted)) and 0.102 h in series [4] (hepes buffer, pH 7.1, pH 7.1 (neutral pH, Hepes buffered solution), room temperature (22-24° C.), absorbance at 310 nm, read-out: time constant of spontaneous hydrolysis). For the same molecule, the “time thawed pH 4 solution could be used without detectable glycine currents in the preincubation baseline” value in series [5] (frozen aliquots of freshly prepared caged glycine pH 4 solution, thawed before application with the mixer) is recorded as “up to 20 min”. Also, in series [5] (laser pulse at 337 nm, mouse cerebral cortical neurons equilibrated with caged glycine), the “opening of glycine receptor channels on irradiation” value was “glycine receptor channels were opened”. Moreover, the “rate of rising phase of whole-cell current” value worked out at 42 s⁻¹ in series [5] (lowest trace, 10 μm (so in the source) glycine released by photolysis); 40 s⁻¹ in series [5] (middle trace, 18 μM glycine released by photolysis); 54 s⁻¹ in series [5] (upper trace, 35 μM free glycine released by photolysis). Moreover, in series [6] (337 nm versus 308 nm light, excimer laser), the “speed of absorbance jump on photolysis with 337 nm light” value was “as fast as the one induced by 308 nm light”. Besides, the “product quantum yield from photolysis” value in series [6] (caged glycine, estimated by comparison to 2-methoxy-5-nitrophenyl acetate as actinometric standard) is reported as 0.2. In addition, in series [6] (laser pulse, absorbance change at 380 nm, b60: 308 or 337 nm), the “time within which caged glycine is photolyzed / converted to products” value was at most 3 μs. Moreover, the “effect of caged glycine on current response to free glycine” value in series [1] (170 μM glycine mixed 1:1 with 1.1 mM caged glycine ester in pH 4 buffer, versus control 85 μM free glycine) is on record as “An identical response was produced”. For the same molecule, in series [1] (caged glycine at pH 4.0 mixed with external buffer, final pH 7.1, -40 mV, 22° C., mouse cortical neurons), the “activation of whole cell current by caged glycine” value is “did not activate any whole cell current”. Moreover, the “effect on glycine receptors or their response to glycine” value in series [1] is reported as “Neither the caged compound nor the 2-methoxy-5-nitrophenol photolysis product affected the glycine receptors or modified their response to glycine”. Moreover, the “inhibition or activation by caged glycine” value in series [1] (mouse cortical neurons, pH 7.1, -40 mV) is reported as “no observable inhibition or activation”.

Consider `COc1ccc([N+](=O)[O-])cc1OC(C)=O` [2-methoxy-5-nitrophenyl acetate, reference compound], for which, in series [2] (triplet quenching measurements, Kuzmic et al.), the “lifetime of the photohydrolysis reaction” value was 0.15 μs. The molecule further gave a quantum yield in series [6] (1 mM solution in 100 mM phosphate buffer at pH 7.0 with 20% acetonitrile, actinometric standard) of 0.22.
